Reference: patent EP2832371B1, “APPLICATION OF GASTRODIN AS SOLUBILIZER AND METHOD FOR PREPARING INJECTION OR POWDER FOR INJECTION” (KPC Pharmaceuticals, Inc., priority 2012, dated 2013)

Tests used:
[1] = Dissolution of the compound together with gastrodin in the preparation tank; format: physicochemical; conditions: amounts per formula of the example; with gastrodin in water for injection kept at 80 °C, vacuum, nitrogen gas
Protocol: heating water for injection to 80-98 °C, followed by stirring under vacuum conditions at 30-80 °C, and then adding the reactant under the protection of nitrogen gas or argon gas to obtain a solution of the reactant.
60% of the total amount of water for injection for preparation was added into a preparation tank, heated to 95 °C with slight boiling, and kept at 80 °C. The vacuum was initiated while stirring for 10 minutes, followed by bringing breviscapine along with gastrodin and sodium carbonate weighed according to the amounts in the formula by nitrogen gas into the preparation tank. […] Next, it is sterile-filtered, sterile-filled and freeze-dried by a conventional process to obtain the freeze-dried powder for injection.

[2] = Maximum tolerance dose of gastrodin calculated from intramuscular and intravenous injection in animals; format: in vivo, human; conditions: calculated at 60 kg from maximum tolerance dose of intramuscular and intravenous injection for animals
Protocol: Gastrodin is a white crystalline powder, odorless, bitter taste; melting point: 153 °C~156 °C; easily soluble in water or methanol and soluble in ethanol. Gastrodin has sedative, hypnotic and analgesic effects, and has low toxicity. It can be calculated from the maximum tolerance dose of intramuscular injection and intravenous injection for animals that the maximum tolerance dose for human is 33.249 g of gastrodin (calculated at 60 kg).

Row | Compound | time in which the compound dissolved in the preparation tank [1] | maximum tolerance dose for human [2]
1 | Breviscapine | about 5 minutes | 
2 | O=C1CC(c2ccccc2)Oc2cc(O)c(O)c(O)c21 (centres unmarked) [Dihydrobaicalein] | about 5 minutes | 
3 | O=c1c(-c2ccc(O)cc2)coc2cc(O[C@@H]3O[C@H](CO)[C@@H](O)[C@H](O)[C@H]3O)ccc12 [Daidzin] | about 5 minutes | 
4 | OCc1ccc(O[C@@H]2O[C@H](CO)[C@@H](O)[C@H](O)[C@H]2O)cc1 [Gastrodin, 4-hydroxymethylphenyl-β-D-glucopyranoside hemihydrate] |  | 33.249 g
5 | Oc1ccc(C=Cc2cc(O)cc(O)c2)cc1 [Resveratrol] | about 5 minutes | 
6 | COc1ccc([C@@H]2CC(=O)c3c(O)cc(O)cc3O2)cc1O [Hesperetin] | about 5 minutes | 
7 | Oc1ccc2c(c1)OC[C@H]1c3cc4c(cc3O[C@@H]21)OCO4 [Maackiain] | about 5 minutes | 
8 | Taxinine | about 5 minutes | 
9 | O=c1c(-c2ccc(O)cc2)coc2cc(O)ccc12 [Daidzein] | about 5 minutes | 
10 | O=C1C[C@@H](c2ccc(O)cc2)Oc2cc(O)cc(O)c21 [Naringenin] | about 5 minutes | 

Continued, in another order:

Row | time in which the compound dissolved in the preparation tank [1] | Compound | maximum tolerance dose for human [2]
11 | about 5 minutes | O=C1c2c(O)cccc2C([C@@H]2O[C@H](CO)[C@@H](O)[C@H](O)[C@H]2O)c2cc(CO)cc(O)c21 (some centres unmarked) [Barbaloin] | 
12 | about 5 minutes | O=C(O)[C@H]1O[C@@H](Oc2cc3oc(-c4ccccc4)cc(=O)c3c(O)c2O)[C@H](O)[C@@H](O)[C@@H]1O [Baicalin] | 
13 | about 5 minutes | O=c1c(-c2ccc(O)cc2)coc2c([C@@H]3O[C@H](CO)[C@@H](O)[C@H](O)[C@H]3O)c(O)ccc12 [Puerarin] | 
14 | about 5 minutes | COc1ccc(/C=C/c2cc(O)cc(O[C@@H]3O[C@H](CO)[C@@H](O)[C@H](O)[C@H]3O)c2)cc1O [Rhapontin] | 
15 | about 5 minutes | COc1c(O)cc2c(c1O)[C@@H]1O[C@H](CO)[C@@H](O)[C@H](O)[C@H]1OC2=O [Bergenin] | 
16 | about 5 minutes | OC[C@H]1O[C@@H](Oc2cc(/C=C/c3cc(O)cc(O)c3)ccc2O)[C@H](O)[C@@H](O)[C@@H]1O | 
17 | about 5 minutes | O=c1c(O)c(-c2ccc(O)c(O)c2)oc2cc(O)cc(O)c12 [Quercetin] | 
18 | about 5 minutes | COc1ccc(/C=C/c2cc(O)cc(O[C@@H]3O[C@H](CO)[C@@H](O)[C@H](O)[C@H]3O)c2)cc1 [Deoxyrhapontin] | 
19 | about 5 minutes | COc1ccc(-c2oc3cc(O)cc(O)c3c(=O)c2O)cc1 [Kaempferide] | 
20 | about 5 minutes | O=c1cc(-c2ccc(O)c(O)c2)oc2cc(O)c([C@@H]3O[C@H](CO)[C@@H](O)[C@H](O)[C@H]3O)c(O)c12 [Homoorientin] | 
21 | about 5 minutes | O=c1cc(-c2ccccc2)oc2cc(O)c(O)c(O)c12 [Baicalein] | 
22 | about 5 minutes | CC(=O)Cc1cc(=O)c2c(C)cc(O)c([C@@H]3O[C@H](CO)[C@@H](O)[C@H](O)[C@H]3O)c2o1 [Aloesin] | 
23 | about 5 minutes | OC[C@H]1O[C@@H](Oc2cc(O)cc(/C=C/c3ccc(O)cc3)c2)[C@H](O)[C@@H](O)[C@@H]1O [Polydatin] | 
